Source: patent US10159670B2, “Methods of diagnosing and treating motor neuron diseases and other cellular stress-related diseases” (priority 2012, dated 2018)

Experiments:
Assay type in all cases: cell-based
[1] = tested on: mouse embryonic fibroblasts (MEFs); assay: pre-miRNA and miRNA levels in mouse embryonic fibroblasts under stress
Description: (§1) (FIG. 7A) miRNA expression level analysis in the motor neuron cell line NSC-34, treated with 6.25 nM Thapsigargin for 24 hrs, relative to cells treated with carrier alone (DMSO). Shown are average and s.d. of qPCR analyses of 3 independent experiments. Pre-miRNAs (light grey, normalized to Gapdh) and miRNAs (dark grey, normalized to Snord68). (FIG. 7B) mRNA levels encoding for proteins involved in the canonical stress response, normalized to the expression of beta-actin. (FIG. 7C) miRNA expression level analysis in mouse embryonic motor neurons, treated with 5 nM Thapsigargin for 72 hrs, relative to cells treated with carrier alone (DMSO). Shown are average and s.d. of qPCR analyses of three independent experiments. Pre-miRNAs (light grey, normalized to Gapdh and beta actin) and miRNAs (dark grey, normalized to Snord70). (FIG. 7D) mRNA markers of the canonical stress response, normalized to the expression of beta-actin. miRNA expression level analysis in NSC-34 cells, treated with Paraquat (PQ) (1 mM, 12 hrs, FIG. 7E) and sodium arsenite (0.5 mM, 60 min, FIG. 7F). pre-miRNA normalized to beta-actin mRNA (FIGS. 7E-F) and miRNAs to 5S (FIG. 7E) or to U6 and 5S (FIG. 7F). (FIGS. 7G-I) miRNA expression level analysis in mouse embryonic Wild-type fibroblasts (light grey) or phospho-mutant eIF2a S51A cells (black) treated with Thapsigargin (5 nM, 72 hrs) relative to carrier alone. Pre-miRNA (FIG. 7G) and mature miRNA (FIG. 7H) levels normalized to Gapdh and Snord68, respectively. (FIG. 7I) ATF4, which is induced by phosphorylation of eIF2a, was not induced in phospho-mutant eIF2a S51A cells. Significance of p-values from ANOVA tests is indicated by *p<0.05; **p<0.01. (FIGS. 7J-K) Western-Blot analysis of lysates from untreated NSC-34 cells (control) or cells treated with sodium arsenite (0.5 mM, 60 min). Phospho-specific immunodetection of eIF2a S51 phosphorylation (peIF2a) and total eIF2a levels (FIG. 7J), Dicer and Ago2 levels (FIG. 7K). (FIG. 7L) miRNA expression level analysis in mouse embryonic fibroblasts treated with Puromycin (1 μg/ml, 24 hrs), relative to cells treated with carrier alone (water). Pre-miRNAs (light grey, normalized to Gapdh) and miRNAs (dark grey, normalized to Snord68).
(FIG. 9A) The ratio of pre-miRNA to mature miRNA levels in NSC-34 cells, transfected with plasmids as indicated and in cells treated for 72 hrs with carrier alone (water, black) or with cycloheximide (CHX, 0.02 μg/ml, gray). Data normalized to control plasmid transfection. Pre-miRNAs further normalized to Gapdh (for FUS R495X, TDP-43 A315T) or to beta-actin (SOD1 G93A) and miRNA levels normalized to Snord68. Average of three independent experiments except for pre-miRNAs in the study of FUS R495X (n=2). Targeted quantitative mass spectrometry analysis of changes in the binding of Ago2 or Dicer to a set of proteins interactors under stress (FIGS. 9B-E). Immunoprecipitated Ago2-Flag (FIG. 9B) or Dicer-Flag (FIG. 9C) from HEK 293 cells, cultured under basal conditions or treated with sodium arsenite (0.5 mM, 60 min) was subjected to targeted mass-spectrometry analysis. Data is averaged from two or three different peptide standards per protein and normalized to the levels of co-immunoprecipiated peptides from untreated cells. Statistically significant result in a student t-test, between arsenite and control treatment is denoted (*p<0.05). Targeted mass spectrometry of (FIG. 9D) Dicer cofactors or (FIG. 9E) SG components, immunoprecipitated with AGO-Flag in FUS R495X-expressing HEK 293 that were further treated for 72 hrs with carrier alone or Cycloheximide (0.02 μg/ml). (FIG. 9F) The ratio of pre-miRNA to mature miRNA levels in mouse embryonic fibroblasts, pretreated for 5 hrs with HSP90 inhibitors (17-AAG, 1 μM or Geldanamycin, 1 μM) and then incubated for 36 more hours with Thapsigargin (5 nM) in combinations with the respective HSP90 inhibitor. […]

[2] = tested on: NSC-34 cells; assay: Stress-induced change of pre-miRNA processing in NSC-34 cells (qPCR)
Description: as §1
RNA was extracted using Tri reagent (Molecular Research Center Inc.) or Qiazol with consecutive use of the miRNeasy Mini Kit (Qiagen). Pre-miRNA and miRNA reverse transcription was performed using miScript Kits No. I & II (Qiagen). Quantitative analysis of miRNA and pre-miRNA expression performed in more than 3 independent biological repeats and additionally in technical duplicates with StepOnePlus quantitative Real-Time PCR System and 2-sided ANOVA-test performed with DataAssist Software (Life technologies Inc.). Next-generation sequencing of mouse precursor miRNAs and mature miRNAs was performed on two independent experimental repeats, as described in Newman et al. [Newman et al. (2011) RNA 17(10): 1795-1803]. miRNAs were normalized to spiked-in controls and pre-miRNAs were normalized to Snord72 and Snord95.
Stress and cytoplasmic stress granules (SGs) emerge as major pathogenic mechanisms of ALS [Kim et al. (2014) Nat Genet 46(2): 152-160]. Stress pathways are thought to control miRNA activity [Etude and Hornstein, EMBO J. (2014) July 1; 33(13):1428-37], but the idea that cellular stress might broadly regulate miRNA biogenesis was not yet tested. This hypothesis was tested herein by measurement of the relative expression levels of mature miRNAs and their precursors, pre-miRNAs, which provides a proxy for the efficacy of Dicer complex activity. […] Two other chemicals were tested that drive oxidative stress, namely Paraquat (PQ, 12 hrs, 1 mM) and sodium arsenite (1 hr, 0.5 mM). […] Therefore, several different cellular stress pathways negatively regulate miRNA biogenesis.

[3] = tested on: mouse embryonic motor neurons; assay: Stress-induced change of miRNA biogenesis in primary mouse motor neurons; settings: 5 nM, 72 hrs
Description: (FIG. 7A) miRNA expression level analysis in the motor neuron cell line NSC-34, treated with 6.25 nM Thapsigargin for 24 hrs, relative to cells treated with carrier alone (DMSO). Shown are average and s.d. of qPCR analyses of 3 independent experiments. Pre-miRNAs (light grey, normalized to Gapdh) and miRNAs (dark grey, normalized to Snord68). (FIG. 7B) mRNA levels encoding for proteins involved in the canonical stress response, normalized to the expression of beta-actin. (FIG. 7C) miRNA expression level analysis in mouse embryonic motor neurons, treated with 5 nM Thapsigargin for 72 hrs, relative to cells treated with carrier alone (DMSO). Shown are average and s.d. of qPCR analyses of three independent experiments. Pre-miRNAs (light grey, normalized to Gapdh and beta actin) and miRNAs (dark grey, normalized to Snord70). (FIG. 7D) mRNA markers of the canonical stress response, normalized to the expression of beta-actin. miRNA expression level analysis in NSC-34 cells, treated with Paraquat (PQ) (1 mM, 12 hrs, FIG. 7E) and sodium arsenite (0.5 mM, 60 min, FIG. 7F). pre-miRNA normalized to beta-actin mRNA (FIGS. 7E-F) and miRNAs to 5S (FIG. 7E) or to U6 and 5S (FIG. 7F). (FIGS. 7G-I) miRNA expression level analysis in mouse embryonic Wild-type fibroblasts (light grey) or phospho-mutant eIF2a S51A cells (black) treated with Thapsigargin (5 nM, 72 hrs) relative to carrier alone. […]

## COc1ccc(C[C@H](N)C(=O)N[C@H]2[C@@H](O)[C@H](n3cnc4c(N(C)C)ncnc43)O[C@@H]2CO)cc1 [Puromycin]
[1]; 1 μg/ml, 24 hrs
  efficacy of pre-miRNA biogenesis: decreased the efficacy of pre-miRNA biogenesis

## C[n+]1ccc(-c2cc[n+](C)cc2)cc1 [Paraquat]
[2]; PQ, 12 hrs, 1 mM
  mature miRNAs: down-regulation of mature miRNAs
  pre-miRNA levels: up-regulation of pre-miRNA levels

## C=CCNC1=C2C[C@@H](C)C[C@H](OC)[C@H](O)[C@@H](C)/C=C(\C)[C@H](OC(N)=O)[C@@H](OC)/C=C\C=C(/C)C(=O)NC(=CC1=O)C2=O [17-AAG]
[1]; HSP90 inhibitor 1 μM, 5 hrs pretreatment, then 36 hrs with Thapsigargin 5 nM
  Thapsigargin-induced inhibition of miRNA biogenesis (ratio of pre-miRNA to mature miRNA): aggravated Thapsigargin-induced inhibition of miRNA biogenesis

## C/C=C(/C)C(=O)O[C@H]1C(C)=C2[C@H]([C@@H]1OC(=O)CCCCCCC)[C@@](C)(OC(C)=O)C[C@H](OC(=O)CCC)[C@@]1(O)[C@H]2OC(=O)[C@@]1(C)O [Thapsigargin]
[2]; 6.25 nM, 24 hrs
  RNA markers of ER-stress: ASNS, ATF4, CHOP and GRP78: up-regulation of RNA markers of ER-stress
  mature miRNAs levels: down-regulate mature miRNAs levels
  miRNA precursors levels: up-regulate miRNA precursors levels
[1]; eIF2a S51A MEFs, 5 nM, 72 hrs
  ATF4 mRNA levels: failed to upregulate ATF4 mRNA levels
  Dicer inhibition (pre-miRNA and mature miRNA levels): partial recovery from Thapsigargin-induced Dicer inhibition
[1]; wild-type MEFs, 5 nM, 72 hrs
  mature miRNA species: relative depletion of the corresponding mature miRNA species
  pre-miRNAs: accumulation of pre-miRNAs
[3]
  markers of ER-stress: up-regulated markers of ER-stress
  miRNA biogenesis: affected miRNA biogenesis
